System: hyperpigmented spots on facial skin
Test: In vivo testing for hyperpigmented spot reduction (melanin Spot Area Fraction, split face, image analysis)
Set-up: species or system human subjects
Details: baseline to Week 8, Beijing, approx. January 21 to March 21; compared to the vehicle
Excerpt: The 270 subjects were screened according to inclusion/exclusion criteria which included the following:
Is willing to refrain from sun exposure by using supplied UV lotion and physical UV blocks, such as a hat, to avoid facial sunburn, tanning or wind burn.
• 1. […] Two hundred and seventy subjects were recruited for the study.

## NC(=O)c1cccnc1 [naicinamide, niacinamide]
  effect on seasonal skin darkening, in words: mitigated the effects of seasonal skin darkening

— patent US20130022558A1, “Methods For Imrproving the Appearance of Hyperpigmented Spot(s) and Skin Tone” (priority 2011, published 2013)
